From ChEMBL document CHEMBL4219115, “Synthesis and evaluation of 4',5'-dihydrospiro[piperidine-4,7'-thieno[2,3-c]pyran] analogues against both active and dormant Mycobacterium tuberculosis” (Bioorg Med Chem, 2018)
Converted amounts (≈) assume the structure as drawn.

Tests used:
[1] = system: Mycobacterium tuberculosis; assay: Antimycobacterial activity against active form of Mycobacterium tuberculosis H37Rv measured after 7 days by alamar blue assay; type: functional; details: 168 h
RAW264.7 = assay: Cytotoxicity against mouse RAW264.7 cells assessed as reduction in cell viability at 50 ug/ml after 48 hrs by MTT assay; type: cell-based; details: raw264.7, 48 h
[2] = system: Mycobacterium tuberculosis; assay: Antimycobacterial activity against nutrient starved dormant form of Mycobacterium tuberculosis H37Rv assessed as log reduction in bacterial count at 10 ug/ml measured after 7 days by […] relative to control; type: functional
[3] = molecular target: T1, L-lysine-epsilon aminotransferase (Mycobacterium tuberculosis, UniProt P9WQ77); assay: Inhibition of Mycobacterium tuberculosis LAT using L-lysine and alpha-ketoglutaric acid as substrate by spectrophotometric analysis
T1 sequence (P9WQ77 whole entry): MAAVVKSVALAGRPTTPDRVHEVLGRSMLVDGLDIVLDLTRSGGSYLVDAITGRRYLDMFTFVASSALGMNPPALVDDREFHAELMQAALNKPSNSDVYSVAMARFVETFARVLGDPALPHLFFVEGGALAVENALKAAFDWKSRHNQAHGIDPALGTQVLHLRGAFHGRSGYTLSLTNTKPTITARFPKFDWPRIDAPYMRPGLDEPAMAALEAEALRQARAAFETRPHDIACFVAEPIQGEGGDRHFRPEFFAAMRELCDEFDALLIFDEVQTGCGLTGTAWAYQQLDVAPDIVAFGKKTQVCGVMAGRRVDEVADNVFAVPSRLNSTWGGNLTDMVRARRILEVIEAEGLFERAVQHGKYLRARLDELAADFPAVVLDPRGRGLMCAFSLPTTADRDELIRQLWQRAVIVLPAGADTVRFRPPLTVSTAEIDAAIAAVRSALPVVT

[4] = system: Mycobacterium tuberculosis; assay: Antimycobacterial activity against Mycobacterium tuberculosis H37Rv measured after 6 days by resazurin assay; type: functional; details: 144 h

`COc1ccc(CN2CCC3(CC2)OCCc2ccsc23)cc1` showed an MIC [1] of 23.1 µM (≈ 7.62 µg/mL).

Compound `O=C(c1ccc(F)cc1)N1CCC2(CC1)OCCc1ccsc12` has an MIC [1] of 18.9 µM (≈ 6.25 µg/mL) and an Activity (RAW264.7) of 18.98%.

`CC[C@@H](CO)NCCN[C@@H](CC)CO` [ETHAMBUTOL] gave an MIC [1] of 9.84 µM (≈ 2.01 µg/mL).

In the case of `Cc1ccc(C(=O)N2CCC3(CC2)OCCc2ccsc23)cc1`, the MIC [1] is reported as 19.1 µM (≈ 6.25 µg/mL) and the Activity (RAW264.7) is reported as 23.16%.

Work on `Cc1ccc(S(=O)(=O)N2CCC3(CC2)OCCc2ccsc23)cc1` yielded an MIC [1] of 8.59 µM (≈ 3.12 µg/mL) and an Activity (RAW264.7) of 22.16%.

With `NNC(=O)c1ccncc1` [ISONIAZID] the MIC [1] was 0.66 µM (≈ 0.0905 µg/mL) and the “log(activity)” value [2] was 1.7.

With `CO[C@H]1/C=C/O[C@@]2(C)Oc3c(C)c(O)c4c(O)c(c(/C=N/N5CCN(C)CC5)c(O)c4c3C2=O)NC(=O)/C(C)=C\C=C\[C@H](C)[C@H](O)[C@@H](C)[C@@H](O)[C@@H](C)[C@H](OC(C)=O)[C@@H]1C` [RIFAMPIN] the “log(activity)” value [2] was 2.

`O=C(c1ccc(Cl)cc1Cl)N1CCC2(CC1)OCCc1ccsc12` was tested, and the MIC [1] was 32.7 µM (≈ 12.5 µg/mL).

Work on `Cc1ccc(CN2CCC3(CC2)OCCc2ccsc23)cc1` yielded an MIC [1] of 79.8 µM (≈ 25 µg/mL).

Compound `O=S(=O)(c1ccc(F)cc1)N1CCC2(CC1)OCCc1ccsc12` has an MIC [1] of 34 µM (≈ 12.5 µg/mL).

Compound `COc1ccc(C(=O)N2CCC3(CC2)OCCc2ccsc23)cc1` has an MIC [1] of 9.09 µM (≈ 3.12 µg/mL) and an Activity (RAW264.7) of 14.59%.

`O=S(=O)(c1ccc(Cl)cc1Cl)N1CCC2(CC1)OCCc1ccsc12` showed an MIC [1] of 29.9 µM (≈ 12.5 µg/mL).

In the case of `CC1COc2c(N3CCN(C)CC3)c(F)cc3c(=O)c(C(=O)O)cn1c23` (configuration not stated) [OFLOXACIN], the MIC [1] is reported as 2.16 µM (≈ 0.781 µg/mL).

Work on `O=S(=O)(c1ccc(Cl)cc1)N1CCC2(CC1)OCCc1ccsc12` yielded an MIC [1] of 65.1 µM (≈ 25 µg/mL).

With `O=S(=O)(c1ccccc1)N1CCC2(CC1)OCCc1ccsc12` the MIC [1] was 71.5 µM (≈ 25 µg/mL).

`Fc1ccc(CN2CCC3(CC2)OCCc2ccsc23)cc1` showed an MIC [1] of 19.7 µM (≈ 6.25 µg/mL) and an Activity (RAW264.7) of 21.67%.

For `Clc1ccc(CN2CCC3(CC2)OCCc2ccsc23)cc1`, the MIC [1] was 9.35 µM (≈ 3.12 µg/mL), the “log(activity)” value [2] was 2.4 and the IC50 [3] was 6.83 µM. It also gave an Activity (RAW264.7) of 26.54%.

`O=S(=O)(c1ccc(F)cc1F)N1CCC2(CC1)OCCc1ccsc12` showed an MIC [1] of 16.2 µM (≈ 6.25 µg/mL) and an Activity (RAW264.7) of 31.08%.

For `O=C(c1ccccc1)N1CCC2(CC1)OCCc1ccsc12`, the MIC [1] was 79.8 µM (≈ 25 µg/mL).

In the case of `O=C(c1ccc(F)cc1F)N1CCC2(CC1)OCCc1ccsc12`, the MIC [1] is reported as 8.94 µM (≈ 3.12 µg/mL), the “log(activity)” value [2] is reported as 2.7 and the IC50 [3] is reported as 3.48 µM. It also gave an Activity (RAW264.7) of 34.06%.

In the case of `Clc1ccc(CN2CCC3(CC2)OCCc2ccsc23)c(Cl)c1`, the MIC [1] is reported as 33.9 µM (≈ 12.5 µg/mL).

In the case of `COc1ccc(S(=O)(=O)N2CCC3(CC2)OCCc2ccsc23)cc1`, the MIC [1] is reported as 8.23 µM (≈ 3.12 µg/mL), the “log(activity)” value [2] is reported as 2.8 and the IC50 [3] is reported as 1.04 µM. The Activity (RAW264.7) was 12.32%.

For `c1ccc(CN2CCC3(CC2)OCCc2ccsc23)cc1`, the MIC [1] was 83.5 µM (≈ 25 µg/mL).

`Fc1ccc(CN2CCC3(CC2)OCCc2ccsc23)c(F)c1` was tested, and the MIC [1] was 37.3 µM (≈ 12.5 µg/mL).

`c1cc2c(s1)CCOC21CCN(Cc2ccc3c(c2)OCCO3)CC1` gave an MIC [4] of 0.38 µM (≈ 0.136 µg/mL).

For `O=C(c1ccc(Cl)cc1)N1CCC2(CC1)OCCc1ccsc12`, the MIC [1] was 71.9 µM (≈ 25 µg/mL).
